Laboratory results published in ChEMBL document CHEMBL1201862, “PubChem BioAssay data set” (2004).
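Where inhibition never reached the appropriate level, the endpoint shown equals the highest concentration tested. Otherwise, values were interpolated linearly from a five-concentration, 48-hour dose response in 96-well plates. Abbreviation: GI50, concentration required for 50% inhibition of growth.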 Calls of active or inactive are those of the source. No stated cut-off is given here; in the data, active = GI50 up to about 1.1 µM and inactive = higher.

How the values were obtained:
Experiment in all cases: NCI-60 cell line screen, 48 h
A498 = system: A498
ACHN = system: ACHN
HOP-62 = system: HOP-62
Hs-578T = system: Hs-578T
MDA-MB-231 = system: MDA-MB-231
MDA-MB-435 = system: MDA-MB-435
MOLT-4 = system: MOLT-4
Malme-3M = system: Malme-3M
NCI-H23 = system: NCI-H23
NCI/ADR-RES = system: NCI/ADR-RES
PC-3 = system: PC-3
RXF 393 = system: RXF 393
SF-268 = system: SF-268
SF-295 = system: SF-295
SF-539 = system: SF-539
SNB-75 = system: SNB-75
SR = system: SR
U-251 = system: U-251
UACC-62 = system: UACC-62
UO-31 = system: UO-31

Compound	GI50 (A498)	GI50 (ACHN)	GI50 (HOP-62)	GI50 (Hs-578T)	GI50 (MDA-MB-231)	GI50 (MDA-MB-435)	GI50 (MOLT-4)	GI50 (Malme-3M)	GI50 (NCI-H23)	GI50 (NCI/ADR-RES)	GI50 (PC-3)	GI50 (RXF 393)	GI50 (SF-268)	GI50 (SF-295)	GI50 (SF-539)	GI50 (SNB-75)	GI50 (SR)	GI50 (U-251)	GI50 (UACC-62)	GI50 (UO-31)
c1ccc2c(c1)ccc1ncccc12	55.8 µM (inactive)	> 100 µM (inactive)	> 100 µM (inactive)	> 100 µM (inactive)	> 100 µM (inactive)	> 100 µM (inactive)	> 100 µM (inactive)	> 100 µM (inactive)	> 100 µM (inactive)	> 100 µM (inactive)	98.2 µM (inactive)	> 100 µM (inactive)	> 100 µM (inactive)	> 100 µM (inactive)	> 100 µM (inactive)	> 100 µM (inactive)	58.2 µM (inactive)	79.3 µM (inactive)	83.8 µM (inactive)	> 100 µM (inactive)
Oc1c(C(Nc2ccccn2)c2ccccc2)ccc2cccnc12 (stereo not given)	10.2 µM (inactive)	3.56 µM (inactive)	4.94 µM (inactive)	12.4 µM (inactive)	3.08 µM (inactive)	5.73 µM (inactive)	2.39 µM (inactive)	1.46 µM (inactive)	3.6 µM (inactive)	1.82 µM (inactive)	3.39 µM (inactive)	3.84 µM (inactive)	2.94 µM (inactive)	3.55 µM (inactive)	3.18 µM (inactive)	6.24 µM (inactive)	2.31 µM (inactive)	2.72 µM (inactive)	4.33 µM (inactive)	3.14 µM (inactive)
CCc1nnc(S)n1/N=C\c1ccc(-c2ccccc2Cl)o1	36.6 µM (inactive)	60.8 µM (inactive)	90.2 µM (inactive)	57 µM (inactive)	42.2 µM (inactive)	21 µM (inactive)	17.5 µM (inactive)	55.7 µM (inactive)	26.4 µM (inactive)	22 µM (inactive)	37.4 µM (inactive)	38.9 µM (inactive)	32.1 µM (inactive)	46.2 µM (inactive)	23 µM (inactive)	28.2 µM (inactive)	19.6 µM (inactive)	32.3 µM (inactive)	40.6 µM (inactive)	37.7 µM (inactive)
CCOC(NC(=O)CC)(C(F)(F)F)C(F)(F)F	> 100 µM (inactive)	> 100 µM (inactive)	> 100 µM (inactive)	> 100 µM (inactive)	> 100 µM (inactive)	> 100 µM (inactive)	> 100 µM (inactive)	> 100 µM (inactive)	> 100 µM (inactive)	> 100 µM (inactive)	> 100 µM (inactive)	0.145 µM (active)	> 100 µM (inactive)	> 100 µM (inactive)	> 100 µM (inactive)	> 100 µM (inactive)	> 100 µM (inactive)	> 100 µM (inactive)	> 100 µM (inactive)	> 100 µM (inactive)
O=c1c2c(nc3[nH]ccn13)CCC2	2.13 µM (inactive)	> 10 µM (inactive)	> 10 µM (inactive)	> 10 µM (inactive)	> 10 µM (inactive)	> 10 µM (inactive)	> 10 µM (inactive)	> 10 µM (inactive)	> 10 µM (inactive)	> 10 µM (inactive)	> 10 µM (inactive)	> 10 µM (inactive)	> 10 µM (inactive)	> 10 µM (inactive)	> 10 µM (inactive)	> 10 µM (inactive)	> 10 µM (inactive)	> 10 µM (inactive)	> 10 µM (inactive)	> 10 µM (inactive)
C=CCN(c1cc(OC)c2[nH]c(C(=O)O)c(C)c2c1[N+](=O)[O-])S(C)(=O)=O	> 100 µM (inactive)	> 100 µM (inactive)	> 100 µM (inactive)	> 100 µM (inactive)	> 100 µM (inactive)	> 100 µM (inactive)	> 100 µM (inactive)	9.79 µM (inactive)	> 100 µM (inactive)	> 100 µM (inactive)	> 100 µM (inactive)	> 100 µM (inactive)	> 100 µM (inactive)	> 100 µM (inactive)	> 100 µM (inactive)	> 100 µM (inactive)	> 100 µM (inactive)	> 100 µM (inactive)	> 100 µM (inactive)	> 100 µM (inactive)
C=CC1(C)OC2(CCN(C(=O)OCC)CC2)OC1C (stereo not given)	> 100 µM (inactive)	> 100 µM (inactive)	> 100 µM (inactive)	> 100 µM (inactive)	> 100 µM (inactive)	> 100 µM (inactive)	34.8 µM (inactive)	> 100 µM (inactive)	> 100 µM (inactive)	> 100 µM (inactive)	> 100 µM (inactive)	> 100 µM (inactive)	> 100 µM (inactive)	> 100 µM (inactive)	> 100 µM (inactive)	> 100 µM (inactive)	> 100 µM (inactive)	> 100 µM (inactive)	> 100 µM (inactive)	> 100 µM (inactive)
CC(O)C1(CNc2cc(Cl)nc(N)n2)CCCCC1 (stereo not given)	39.3 µM (inactive)	> 100 µM (inactive)	> 100 µM (inactive)	> 100 µM (inactive)	> 100 µM (inactive)	> 100 µM (inactive)	35.6 µM (inactive)	> 100 µM (inactive)	83.6 µM (inactive)	58.2 µM (inactive)	65.6 µM (inactive)	> 100 µM (inactive)	> 100 µM (inactive)	> 100 µM (inactive)	> 100 µM (inactive)	69.5 µM (inactive)	66.1 µM (inactive)	> 100 µM (inactive)	> 100 µM (inactive)	59.2 µM (inactive)
CCOC(=O)c1c(N/C(S)=N/c2ccccc2)sc2c1CCOC2	37 µM (inactive)	97.3 µM (inactive)	92 µM (inactive)	67.3 µM (inactive)	> 100 µM (inactive)	56.6 µM (inactive)	69.5 µM (inactive)	52.1 µM (inactive)	26.4 µM (inactive)	60.4 µM (inactive)	61.2 µM (inactive)	69.2 µM (inactive)	64.1 µM (inactive)	46.8 µM (inactive)	> 100 µM (inactive)	17.5 µM (inactive)	53.5 µM (inactive)	> 100 µM (inactive)	28.9 µM (inactive)	45.9 µM (inactive)
CCOC(=O)c1ccc(/N=c2/[nH]c3ccccc3s/c2=N/c2ccc(C(=O)OCC)cc2)cc1	82 µM (inactive)	29.1 µM (inactive)	> 100 µM (inactive)	39.5 µM (inactive)	> 100 µM (inactive)	> 100 µM (inactive)	> 100 µM (inactive)	> 100 µM (inactive)	> 100 µM (inactive)	88.9 µM (inactive)	> 100 µM (inactive)	> 100 µM (inactive)	> 100 µM (inactive)	83 µM (inactive)	72.8 µM (inactive)	48 µM (inactive)	> 100 µM (inactive)	39.4 µM (inactive)	> 100 µM (inactive)	> 100 µM (inactive)
CN(CCC#N)c1ccc(/C=C2\SC(=S)NC2=O)cc1	30.1 µM (inactive)	62.4 µM (inactive)	41.3 µM (inactive)	33.3 µM (inactive)	56 µM (inactive)	31.6 µM (inactive)	42 µM (inactive)	> 100 µM (inactive)	39.5 µM (inactive)	> 100 µM (inactive)	34.3 µM (inactive)	23.6 µM (inactive)	63.1 µM (inactive)	35.9 µM (inactive)	49.4 µM (inactive)	35 µM (inactive)	24.3 µM (inactive)	32.8 µM (inactive)	19.8 µM (inactive)	27.2 µM (inactive)
C(/C=N/c1ccccc1)=C(/Nc1ccccc1)c1ccc2ccccc2c1	12.4 µM (inactive)	2.39 µM (inactive)	1.82 µM (inactive)	2.58 µM (inactive)	1.29 µM (inactive)	0.299 µM (active)	1 µM (active)	1.78 µM (inactive)	2.13 µM (inactive)	1.5 µM (inactive)	1.55 µM (inactive)	1.66 µM (inactive)	4.71 µM (inactive)	1.47 µM (inactive)	1.83 µM (inactive)	1.64 µM (inactive)	0.676 µM (active)	2.65 µM (inactive)	0.548 µM (active)	3.13 µM (inactive)
Nc1ncnc2c1ncn2C1OC(C(=O)OCCO)C(O)C1O (stereo not given)	> 100 µM (inactive)	> 100 µM (inactive)	> 100 µM (inactive)	> 100 µM (inactive)	> 100 µM (inactive)	> 100 µM (inactive)	> 100 µM (inactive)	> 100 µM (inactive)	> 100 µM (inactive)	> 100 µM (inactive)	> 100 µM (inactive)	> 100 µM (inactive)	> 100 µM (inactive)	> 100 µM (inactive)	> 100 µM (inactive)	> 100 µM (inactive)	> 100 µM (inactive)	> 100 µM (inactive)	> 100 µM (inactive)	> 100 µM (inactive)
CCCCCOC(=O)c1cc2cc(CCl)ccc2oc1=O	2.44 µM (inactive)	0.537 µM (active)	8.28 µM (inactive)	7.23 µM (inactive)	16.5 µM (inactive)	1.85 µM (inactive)	7.33 µM (inactive)	0.274 µM (active)	1.5 µM (inactive)	17.3 µM (inactive)	4.07 µM (inactive)	2.18 µM (inactive)	13.2 µM (inactive)	13.7 µM (inactive)	27.6 µM (inactive)	8.22 µM (inactive)	8.07 µM (inactive)	16.8 µM (inactive)	1.64 µM (inactive)	2.06 µM (inactive)
